In article PMC10969742, “A Phase I Study of the Oral Dual-Acting Pan-PI3K/mTOR Inhibitor Bimiralisib in Patients with Advanced Solid Tumors” (Cancers, 2024):
Like-named read-outs stand apart in the source and are kept apart here.

Assay: Plasma pharmacokinetics of bimiralisib, non-compartmental analysis (LC-MS)
Assay type: in vivo, human
Settings: for AUC(0-t) / Cmax / Tmax: human, plasma, oral; for Cmax: read-out: Cmax Mean (%CV); for Tmax: read-out: Tmax Median, (Range)
Method: Blood samples were collected to enable full PK profiling of bimiralisib. The PK samples were taken pre-dose and at 0.5, 1, 2, 4, 6, 8, and 24 h post-dosing in the three schedules, with additional timepoints depending on the schedule (48 h in the continuous schedule, 12, 16, and 48 h in intermittent schedule A and 12, 16, and 72 h in intermittent schedule B). PK sampling was repeated on cycle 1 Day 8 (continuous schedule: pre-dose and 1 h post-dose; intermittent schedules A and B: pre-dose and 0.5, 1, 2, 4, 6, 8, and 24 h post-dose), on cycle 1 Day 15 (continuous schedule: pre-dose and 0.5, 1, 2, 4, 6 and 8 h post-dose; intermittent schedules A and B: pre-dose and 4 h post-dose), and on cycle 2 Day 1 (continuous dosing: pre-dose and 1 h post-dose). Samples were sent to a central laboratory for analysis using liquid-chromatography mass spectrometry. The pharmacokinetics of bimiralisib were determined by non-compartmental analysis. Area under the concentration vs. time curve (AUC) was calculated using the linear up log down trapezoidal method. Accumulation was calculated as the ratio of cycle 1 on Day 15 AUC0–8h versus cycle 1 on Day -3 AUC0–8h.

[1] = 80 mg, Continuous Dosing, 80 mg, Day 15, 7 patients
[2] = 80 mg, Continuous Dosing, 80 mg, Day -3, 11 patients
[3] = 80 mg, Intermittent Dose Schedule A, 80 mg, Day 8, 3 patients
[4] = 80 mg, Intermittent Dose Schedule A, 80 mg, Day -3, 4 patients
[5] = 80 mg, Intermittent Dose Schedule B, 80 mg, Day 1, 4 patients
[6] = 80 mg, Intermittent Dose Schedule B, 80 mg, Day 8, 4 patients
[7] = 100 mg, Continuous Dosing, 100 mg, Day 1, 5 patients
[8] = 100 mg, Continuous Dosing, 100 mg, Day 15, 2 patients
[9] = 100 mg, Intermittent Dose Schedule A, 100 mg, Day -3, 4 patients
[10] = 100 mg, Intermittent Dose Schedule B, 100 mg, Day 1, 7 patients
[11] = 100 mg, Intermittent Dose Schedule B, 100 mg, Day 8, 6 patients
[12] = 120 mg, Continuous Dosing, 120 mg, Day 1, 5 patients
[13] = 120 mg, Continuous Dosing, 120 mg, Day 15, 1 patient
[14] = 120 mg, Intermittent Dose Schedule A, 120 mg, Day 8, 3 patients
[15] = 120 mg, Intermittent Dose Schedule A, 120 mg, Day -3, 4 patients
[16] = 120 mg, Intermittent Dose Schedule B, 120 mg, Day 1, 3 patients
[17] = 120 mg, Intermittent Dose Schedule B, 120 mg, Day 8, 3 patients
[18] = 140 mg, Intermittent Dose Schedule A, 140 mg, Day 8, 6 patients

Nc1cc(C(F)(F)F)c(-c2nc(N3CCOCC3)nc(N3CCOCC3)n2)cn1 [bimiralisib, 5-(4,6-Dimorpholino-1,3,5-triazin-2-yl)-4-(trifluoromethyl)pyridin-2-amine]
Dose proportionality of concentration-time data (all dosing schedules, 80–200 mg): not proportional to doses
Median half-life, calculated from accumulation (continuous schedule, range < 6–146 h): 39.5 h
Median accumulation ratio (cycle 1 Day 15 AUC0–8h versus Day -3 AUC0–8h) (continuous schedule, range, <1.0–9.3): 2.9
AUC(0-t) (80 mg, Continuous Dosing, 80 mg, Day 15, 7 patients, read-out: AUC0–8 Geometric Mean (%CV)): 4090 ng·h/mL
Cmax [1]: 766 ng/mL
Tmax [1]: 1 h
AUC(0-t) (80 mg, Continuous Dosing, 80 mg, Day -3, 11 patients, read-out: AUC0–8 Geometric Mean (%CV)): 1530 ng·h/mL
AUC(0-t) (80 mg, Continuous Dosing, 80 mg, Day -3, 11 patients, read-out: AUC0–24 Geometric Mean (%CV)): 4290 ng·h/mL
Cmax [2]: 407 ng/mL
Tmax [2]: 2 h
AUC(0-t) (80 mg, Intermittent Dose Schedule A, 80 mg, Day 8, 3 patients, read-out: AUC0–8 Geometric Mean (%CV)): 2350 ng·h/mL
Cmax [3]: 614 ng/mL
Tmax [3]: 1 h
AUC(0-t) (80 mg, Intermittent Dose Schedule A, 80 mg, Day 8, n = 1, read-out: AUC0–24 Geometric Mean (%CV)): 6740 ng·h/mL
AUC(0-t) (80 mg, Intermittent Dose Schedule A, 80 mg, Day -3, 4 patients, read-out: AUC0–8 Geometric Mean (%CV)): 1580 ng·h/mL
AUC(0-t) (80 mg, Intermittent Dose Schedule A, 80 mg, Day -3, 4 patients, read-out: AUC0–24 Geometric Mean (%CV)): 3540 ng·h/mL
Cmax [4]: 410 ng/mL
Tmax [4]: 1.5 h
AUC(0-t) (80 mg, Intermittent Dose Schedule B, 80 mg, Day 1, 4 patients, read-out: AUC0–8 Geometric Mean (%CV)): 1680 ng·h/mL
AUC(0-t) (80 mg, Intermittent Dose Schedule B, 80 mg, Day 1, 4 patients, read-out: AUC0–24 Geometric Mean (%CV)): 4000 ng·h/mL
Cmax [5]: 341 ng/mL
Tmax [5]: 3 h
AUC(0-t) (80 mg, Intermittent Dose Schedule B, 80 mg, Day 8, 4 patients, read-out: AUC0–8 Geometric Mean (%CV)): 2600 ng·h/mL
Cmax [6]: 681 ng/mL
Tmax [6]: 1.5 h
AUC(0-t) (80 mg, Intermittent Dose Schedule B, 80 mg, Day 8, n = 3, read-out: AUC0–24 Geometric Mean (%CV)): 6350 ng·h/mL
AUC(0-t) (100 mg, Continuous Dosing, 100 mg, Day 1, 5 patients, read-out: AUC0–8 Geometric Mean (%CV)): 1690 ng·h/mL
AUC(0-t) (100 mg, Continuous Dosing, 100 mg, Day 1, 5 patients, read-out: AUC0–24 Geometric Mean (%CV)): 4660 ng·h/mL
Cmax [7]: 441 ng/mL
Tmax [7]: 1.7 h
AUC(0-t) (100 mg, Continuous Dosing, 100 mg, Day 15, 2 patients, read-out: AUC0–8 Geometric Mean (%CV)): 5750 ng·h/mL
Cmax [8]: 1110 ng/mL
Tmax [8]: 2 h
AUC(0-t) (100 mg, Intermittent Dose Schedule A, 100 mg, Day 8, 3 patients, read-out: AUC0–8 Geometric Mean (%CV)): 3910 ng·h/mL
Tmax (100 mg, Intermittent Dose Schedule A, 100 mg, Day 8, 3 patients): 1 h
AUC(0-t) (100 mg, Intermittent Dose Schedule A, 100 mg, Day 8, n = 2, read-out: AUC0–24 Geometric Mean (%CV)): 12400 ng·h/mL
AUC(0-t) (100 mg, Intermittent Dose Schedule A, 100 mg, Day -3, 4 patients, read-out: AUC0–8 Geometric Mean (%CV)): 1970 ng·h/mL
AUC(0-t) (100 mg, Intermittent Dose Schedule A, 100 mg, Day -3, 4 patients, read-out: AUC0–24 Geometric Mean (%CV)): 4170 ng·h/mL
Cmax [9]: 543 ng/mL
Tmax [9]: 1 h
AUC(0-t) (100 mg, Intermittent Dose Schedule B, 100 mg, Day 1, 7 patients, read-out: AUC0–8 Geometric Mean (%CV)): 1920 ng·h/mL
AUC(0-t) (100 mg, Intermittent Dose Schedule B, 100 mg, Day 1, 7 patients, read-out: AUC0–24 Geometric Mean (%CV)): 4520 ng·h/mL
Cmax [10]: 562 ng/mL
Tmax [10]: 2 h
AUC(0-t) (100 mg, Intermittent Dose Schedule B, 100 mg, Day 8, 6 patients, read-out: AUC0–8 Geometric Mean (%CV)): 2880 ng·h/mL
Cmax [11]: 714 ng/mL
Tmax [11]: 1.5 h
AUC(0-t) (100 mg, Intermittent Dose Schedule B, 100 mg, Day 8, n = 4, read-out: AUC0–24 Geometric Mean (%CV)): 6200 ng·h/mL
AUC(0-t) (120 mg, Continuous Dosing, 120 mg, Day 1, 5 patients, read-out: AUC0–8 Geometric Mean (%CV)): 2990 ng·h/mL
AUC(0-t) (120 mg, Continuous Dosing, 120 mg, Day 1, 5 patients, read-out: AUC0–24 Geometric Mean (%CV)): 7600 ng·h/mL
Cmax [12]: 876 ng/mL
Tmax [12]: 2 h
AUC(0-t) (120 mg, Continuous Dosing, 120 mg, Day 15, 1 patient, read-out: AUC0–8 Geometric Mean (%CV)): 6430 ng·h/mL
Cmax [13]: 982 ng/mL
Tmax [13]: 8 h
AUC(0-t) (120 mg, Intermittent Dose Schedule A, 120 mg, Day 8, 3 patients, read-out: AUC0–8 Geometric Mean (%CV)): 3710 ng·h/mL
AUC(0-t) (120 mg, Intermittent Dose Schedule A, 120 mg, Day 8, 3 patients, read-out: AUC0–24 Geometric Mean (%CV)): 8940 ng·h/mL
Cmax [14]: 872 ng/mL
Tmax [14]: 1 h
AUC(0-t) (120 mg, Intermittent Dose Schedule A, 120 mg, Day -3, 4 patients, read-out: AUC0–8 Geometric Mean (%CV)): 2590 ng·h/mL
AUC(0-t) (120 mg, Intermittent Dose Schedule A, 120 mg, Day -3, 4 patients, read-out: AUC0–24 Geometric Mean (%CV)): 5590 ng·h/mL
Cmax [15]: 549 ng/mL
Tmax [15]: 3 h
AUC(0-t) (120 mg, Intermittent Dose Schedule B, 120 mg, Day 1, 3 patients, read-out: AUC0–8 Geometric Mean (%CV)): 1530 ng·h/mL
AUC(0-t) (120 mg, Intermittent Dose Schedule B, 120 mg, Day 1, 3 patients, read-out: AUC0–24 Geometric Mean (%CV)): 3340 ng·h/mL
Cmax [16]: 471 ng/mL
Tmax [16]: 1 h
AUC(0-t) (120 mg, Intermittent Dose Schedule B, 120 mg, Day 8, 3 patients, read-out: AUC0–8 Geometric Mean (%CV)): 2210 ng·h/mL
AUC(0-t) (120 mg, Intermittent Dose Schedule B, 120 mg, Day 8, 3 patients, read-out: AUC0–24 Geometric Mean (%CV)): 5850 ng·h/mL
Cmax [17]: 594 ng/mL
Tmax [17]: 1 h
AUC(0-t) (140 mg, Intermittent Dose Schedule A, 140 mg, Day 8, 6 patients, read-out: AUC0–8 Geometric Mean (%CV)): 3220 ng·h/mL
Cmax [18]: 923 ng/mL
Tmax [18]: 1 h
AUC(0-t) (140 mg, Intermittent Dose Schedule A, 140 mg, Day 8, n = 3, read-out: AUC0–24 Geometric Mean (%CV)): 7590 ng·h/mL
AUC(0-t) (140 mg, Intermittent Dose Schedule A, 140 mg, Day -3, 6 patients, read-out: AUC0–8 Geometric Mean (%CV)): 2580 ng·h/mL
AUC(0-t) (140 mg, Intermittent Dose Schedule A, 140 mg, Day -3, 6 patients, read-out: AUC0–24 Geometric Mean (%CV)): 5810 ng·h/mL
